In patent US20260198495A1, “BINARY INSECTICIDE COMPOSITION AND USE THEREOF” (SHENYANG SINOCHEM AGROCHEMICALS R & D CO., LTD., priority 2022, published 2026):
Values after ≈ are worked out from the molar mass of the structure shown.

Legend:
Assay type in all cases: in vivo
[1] = system: 3rd-instar larvae of Ostrinia furnacalis Guenee; test: Joint toxicity of I-72 + organophosphorus insecticides, corn stalk dipping, Example 21, Table 21; details: 3rd-instar larvae, corn stalk dipping, 48 h, A = compound I-72, B = acephate, read-out: LC50
Description: Test target: 3rd-instar larvae of Ostrinia furnacalis Guenee, a sensitive strain reared indoors.
(§1) Preparation of the pesticide solution: according to different test requirements, the test samples were accurately weighed respectively with an electronic analytical balance. The technical pesticides were dissolved in acetone, and then diluted with 0.1% Tween 80 water into a series of pesticide solutions with a certain concentration gradient according to the experimental design dosage.
Experimental method: first, fresh tender corn stalks cultivated in the greenhouse were selected, cut into small sections of 3 cm, and dipped in the prepared pesticide solution for 10 s in the order from low dosage to high dosage according to the experimental design. After natural air-drying in the shade, they were placed in a 9-cm-diameter Petri dish with filter paper, and uniform and healthy test insects were introduced, with 10 insects for each treatment and 3 replicates for each treatment. In addition, a blank control was set up.
(§2) The treated test materials were placed in an observation room, and the temperature, humidity and illumination of the observation room could be adjusted as needed. The number of dead and live insects was investigated 48 hours later. The corrected mortality rate was calculated using the Abbott's formula, and statistical analysis was performed with the DPS data processing software to obtain the toxicity regression equation, LC50 value and 95% confidence limit of each single test pesticide and each mixture of different ratios. Then, the co-toxicity coefficient of each ratio was calculated using the Sun Y-P method to evaluate the mixing effect (the same as in Example 1).

[2] = system: adult Phyllotreta striolata (Walker); test: Joint toxicity of I-72 + rotenone, insect dipping, Example 35, Table 35; details: A = compound I-72, B = rotenone, insect dipping 10 s, read-out: LC50
Text: Test target: adult Phyllotreta striolata (Walker), a strain reared indoors.
Experimental method: the dipping method was adopted. Adult flea beetles of uniform size were put into an insect-dipping cage and dipped for 10 s in the order from low dosage to high dosage according to the experimental design, with 30 beetles for each treatment. The beetles were placed in a 9-cm-diameter Petri dish with filter paper, with 3 replicates for each treatment. In addition, a blank control was set up. The treated test materials were placed in an observation room, and the temperature, humidity and illumination of the observation room could be adjusted as needed.
(§3) The test conditions, the preparation of the pesticide solution and the evaluation method were the same as those in Example 1.

[3] = system: adult Bemisia tabaci (Gennadius); test: Joint toxicity of I-72 + pyraclostrobin, cotton seedling spraying, Example 83, Table 83; details: A = compound I-72, B = pyraclostrobin, cotton seedling spraying, 72 hours, read-out: LC50
Description: as §1
(§4) The corrected mortality rate was calculated using the Abbott's formula, and statistical analysis was performed with the DPS data processing software to obtain the toxicity regression equation and LC50 value of each single test pesticide and each mixture of different ratios.

[4] = system: 3rd-instar larvae of Spodoptera exigua Hübner; test: Joint toxicity of I-72 + emamectin benzoate, leaf-disk dipping, Example 9, Table 9; details: Spodoptera exigua, cabbage leaf-disk dipping, 72 h, A = compound I-72, B = emamectin benzoate, read-out: LC50
Text: Test subject: 3rd-instar larvae of Spodoptera exigua Hübner, a sensitive strain reared indoors.
Experimental method: the dipping method was adopted. The cabbage leaves cultivated in the greenhouse were taken, the surface wax layer was removed, and leaf disks with a diameter of 3 cm were made with a puncher. The leaf disks were dipped in the prepared pesticide solution for 10 s, and then put into a 9-cm-diameter Petri dish lined with filter paper. After natural air-drying in the shade, the standard test insects were introduced, with 10 insects placed in each dish and 3 replicates performed. The treated test insects were placed in an observation room under certain conditions. The reaction of the test insects was regularly observed, and the number of dead and live insects was investigated 72 h later.
as §3

[5] = system: 3rd-instar larvae of Agrotis ipsilon (Rottemberg); test: whole plant or invertebrate; details: Agrotis ipsilon; A = compound I-72, B = metalaxyl-M; insect-dipping; 72 hours; read-out: LC50
Description: Test conditions: temperature: 24-26° C., humidity: RH 60%, and illumination: L:D=14:10
as §1
The target insects were dipped into the pesticide solution for 10 s and then taken out. Excess pesticide solution was absorbed with filter paper. […] A treatment without the pesticide was set as the blank control.
as §4, with “The number of dead and live insects was investigated 72 hours later. The” for “The”

[6] = system: Myzus persicae (Sulzer) nymphs; test: whole plant or invertebrate; details: A = compound I-72, B = clothianidin, cabbage leaf spraying, 48 hours, read-out: LC50
Description: Test target: Myzus persicae (Sulzer) nymphs, a sensitive strain reared indoors.
as §1
Experimental method: first, cabbage leaves with uniform and consistent Myzus persicae (Sulzer) were selected, with about 30-40 insects on each leaf. Then, they were evenly sprayed with the pesticide solution in the order from low dosage to high dosage according to the experimental design, with 1.5 mL of the solution for each leaf and 3 replicates for each treatment. In addition, a blank control was set up.
The treated test materials were placed in an observation room, and the temperature, humidity and illumination of the observation room could be adjusted as needed. The number of dead and live insects was investigated 48 hours later.

adult Phyllotreta spp. = test: Joint toxicity of I-72 + organophosphorus insecticides, cabbage seedling spraying, Example 19, Table 19; details: adults, cabbage seedling spraying, 72 h; A = compound I-72, B = acephate; read-out: LC50
Description: Test target: adult Phyllotreta spp., a sensitive strain reared indoors.
as §1
Experimental method: first, fresh cabbage seedlings cultivated in the greenhouse were selected and evenly sprayed with the pesticide solution in the order from low dosage to high dosage according to the experimental design. After natural air-drying in the shade, they were covered with a glass cover, and uniform and healthy test insects were introduced, with 10 insects for each treatment and 3 replicates for each treatment. In addition, a blank control was set up.
as §2, with “72” for “48”

[7] = system: Thrips flavus Schrank nymphs; test: Joint toxicity of I-72 + tolfenpyrad, Example 62, Table 62; details: A = compound I72, B = tolfenpyrad, eggplant seedling spraying, 48 hours, read-out: LC50
Description: Test target: Thrips flavus Schrank nymphs.
as §1
Experimental method: first, eggplant seedlings with Thrips flavus Schrank were selected, and the base number was counted. Then, uniform spraying was performed with the pesticide solution in the order from low to high doses according to the experimental design, with 2 mL for each seedling and 3 replicates for each treatment. In addition, a blank control was set up.
The treated test materials were placed in an observation room, and the temperature, humidity and illumination of the observation room could be adjusted as needed. The number of dead and live insects was investigated 48 hours later. […] Then, the co-toxicity coefficient of each ratio was calculated using the Sun Y-P method to evaluate the mixing effect (the same as in Example 1).

Question: What does the source list for `CN(C(=O)c1ccc2c(c1)OC(F)(F)O2)c1cccc(C(=O)Nc2c(Br)cc(C(F)(C(F)(F)F)C(F)(F)F)cc2OC(F)F)c1F` [Compound I-72]?
Answer: LC50 [1]: 1.19 µg/mL; LC50 [2]: 1.81 µg/mL; LC50 [3]: 4.02 µg/mL; LC50 [4]: 0.241 µg/mL; LC50 [5]: 0.265 µg/mL (≈ 0.357 µM); LC50 [6]: 8.05 µg/mL (≈ 10.9 µM); LC50 (adult Phyllotreta spp.): 3.01 µg/mL; LC50 [7]: 2.02 µg/mL
